Drawing on publication PMC4172534 (Neuroscience, 2014), this text covers EC50 for two compounds.

Test [1] has as its system Homomeric GluK1 or GluK2 receptors. Put plainly: Whole-cell patch-clamp current response, homomeric GluK1 or GluK2 receptors. The test is classed as cell-based, rat. The following applies: read-out: EC50 range; summary in discussion of own homomer values. For orientation: In patch-clamp work, channel activity is measured electrically.
The next test deals with GluK3/K5 heteromer. The following applies: read-out: glutamate EC50; ref Perrais et al, 2009a; cited from earlier work.
A further test has as its system GluK3 homomers. The following applies: read-out: glutamate EC50; ref Perrais et al, 2009a; cited from earlier work.
Another test has as its target GluK2 receptors. To be noted: literature range; ref Jones et al., 1997; Alt et al., 2004; Jane et al., 2009; cited from earlier work.
A further test addresses GluK2/K5 receptors. The following applies: literature range; ref Jones et al., 1997; Alt et al., 2004; Jane et al., 2009; cited from earlier work.

By EC50 is commonly meant the concentration at which the effect is half-maximal. In the case of `N[C@@H](CCC(=O)O)C(=O)O` [glutamate], the results for the EC50 (in test [1]; in the test on GluK3/K5 heteromer; in the test on GluK3 homomers) were 100 to 200 µM, 6000 µM and 10000 µM, respectively.

Consider `C=C(C)[C@H]1CN[C@H](C(=O)O)[C@H]1CC(=O)O` [kainate], for which the EC50 at GluK2 receptors and on GluK2/K5 receptors was 1 to 5 µM in each case.
